{
  "source": "patent US8492347B2",
  "about": "“Peptide for induction of immune tolerance as treatment for systemic lupus erythematosus” (The Regents of the University of California, priority 2007, dated 2013)",
  "key": {"[1]": {"system": "BWF1 mice", "assay": "anti-DNA antibodies (ELISA) in mice fed peptide", "format": "in vivo", "conditions": "250 ug fed 5 days out of each 30 from age 10 weeks", "procedure": "Anti-DNA antibodies were measured by ELISA and proteinuria by Azostix (see, e.g. Yang et al., J. I., 2003, 171: 2142-2153).\nWe also observed the clinical effects of feeding either D- or L-peptides at the low, medium and high doses of each. Because mRNA analysis of mesenteric lymph nodes provided evidence that high dose D-peptide would induce tolerance, we began new experiments to compare high dose (250 ug) feedings of D-peptide to the same dose of L-peptide. A control group was fed saline on the same schedule as the peptide feedings, which is daily for 5 days out of each 30 days. Each group contains 14 mice; treatment was begun at age 10 weeks. Observed effects on anti-DNA are as follows. […] Note that the saline control group is lower than the positive control anti-DNA, which is serum from BWF1 mice with heavy proteinuria and imminent death. Thus, the saline control has not reached the expected high level at this point but should do so in the next 2 months."}, "[2]": {"system": "mice", "assay": "induction of Treg and Ti in mice by administered peptide", "format": "in vivo", "conditions": "administered subcutaneously (so in the source)"}, "[3]": {"system": "naïve BWF1 CD4+ CD25− helper T cells cultured with naïve BWF1 B cells", "assay": "anti-DNA antibody-forming cells in cultures of BWF1 B cells plus CD4+ CD25− helper T cells after i.v. peptide", "format": "in vivo, mice", "procedure": "FIG. 1 provides a bar graph of data showing that the intravenous administration of either 500 or 250 ug of D-pCons is effective in suppressing anti-DNA antibody production by naïve BWF1 CD4+ CD25− helper T cells cultured with naïve BWF1 B cells. The numbers of splenic B cells making IgG anti-DNA dropped from 65 per 10^6 B cells in the untreated group to 30-32 in the tolerized groups.\nFIG. 2 provides a bar graph of data from studies of L-pCons and D-pCons. Both D-pCons and L-pCons peptides were given once i.v. and spleen cells harvested 2 weeks later. Note that for L-pCons, the combination of naïve B cells plus CD4+ CD25− helper T cells gave a mean of 160 anti-DNA antibody-forming cells per 10^6 B cells (column 3), whereas addition of CD4+ CD25+ Treg from tolerized mice to the culture reduced the AFC to 25 per 10^6 B cells (column 4). These differences were statistically significant, p<0.001. Note also that the suppression was abrogated by incubation of the cultures with antibodies to GITR (column 6) or TGFb-LAP (column 7), but not by CTLA4-Ig (column 8).\nFor tolerance induction, ten-to-twelve week-old BWF1 mice received a single i.v. dose of 1 mg of one of the peptides, dissolved in saline, as reported previously (see, e.g. Singh et al., J Clin Invest 1995; 96:2990-6). Controls in selected experiments were either treated with saline or control peptides.\nAssays were performed to measure anti-DNA Ab according to art accepted protocols (see, e.g. Singh et al., J Clin Invest 1995; 96:2990-6; Hahn et al., Arthritis Rheum 2001; 44:432-41; La Cava et al., J Immunol 2004; 173:3542-8; Hahn et al., Ann NY Acad Sci 2005; 1051:433-41; Hahn et al., J Immunol 2005; 175:7728-37; Singh et al., J Immunol 2007; 178:7649-57). […] After 5 days, culture supernatants were collected, concentrated, and analyzed for anti-DNA IgG by ELISA. […]"}, "[4]": {"system": "CD4+ CD25− T cells", "assay": "suppression of autologous CD4+ CD25− T cells by pCons-induced Treg", "format": "cell-based, human", "conditions": "1:1 ratios", "source_text": "T cells were also expanded and silencing of Foxp3 by transfection with specific siRNA for Foxp3 abrogated the suppressive capacity of the induced T reg by ½ (3rd panel, FIG. 8).\nNext, we studied the ability of L-pCons to induce Treg in T cells from the peripheral blood of patients with SLE (36 patients, 32 healthy controls). Stimulatory control peptides B and D are wild peptides from human mAb anti-DNA; peptide A is a nonstimulatory negative control (see, e.g. Kaki et al., Lupus 2004; 13:490-500). […] These expanded cells were regulatory (FIG. 8): they suppressed proliferation and IFNg synthesis by autologous CD4+ CD25− cells in culture. Numbers of CD4+ Foxp3+ T cells were also expanded and silencing of Foxp3 by transfection with specific siRNA for Foxp3 abrogated the suppressive capacity of the induced T reg by ½ (3rd panel, FIG. 8). […] Patients who were anti-DNA negative were unlikely to respond to pCons with expansion of Treg (see, e.g. La Cava et al, Lupus. 2008; 17(5):421-5)."}, "[5]": {"system": "BWF1 mice", "assay": "single adoptive transfer of CD8+ Ti from tolerized mice to irradiated syngeneic recipients", "format": "in vivo", "conditions": "single transfer of 10×10^6 CD8+ T cells from spleens of tolerized mice", "source_text": "FIG. 4 provides graphs of data showing the CD8+ Ti induced by i.v. administration of L-pCons are potent in suppressing nephritis (left panel) and prolonging survival in vivo (right panel) (see, e.g. Hahn et al., J Immunol 2005; 175:7728-37)."}},
  "note": "Where no end group is shown, it is not given here. [ ]: non-standard residue; d: D form.",
  "data": [
    {"sequence": "FIEWNKLRFRQGLEW ([dF][dI][dE][dW][dN][dK][dL][dR][dF][dR][dQ]G[dL][dE][dW]) [D-pCons]", "values": [
      {"measurement": "anti-DNA antibody levels vs saline", "setting": "[1]; at 24 weeks of age, not statistically significant", "value": "trends to lower anti-DNA antibody levels"},
      {"measurement": "anti-DNA antibody levels vs saline", "setting": "[1]; at 34 weeks, one-tailed t test, listed as D-peptide", "value": "borderline (p=0.17 by one-tailed t test)"},
      {"measurement": "induction of Treg and Ti", "setting": "[2]", "value": "induces Treg and Ti"},
      {"measurement": "suppression of anti-DNA antibody production", "setting": "[3]; 125 ug dose i.v.", "value": "not effective in inducing suppression"},
      {"measurement": "numbers of splenic B cells making IgG anti-DNA", "setting": "[3]; 500 or 250 ug i.v. (tolerized groups), untreated group 65", "value": "30-32 per 10^6 B cells"}
    ]},
    {"sequence": "FIEWNKLRFRQGLEW [L-pCons]", "values": [
      {"measurement": "anti-DNA antibody levels vs saline", "setting": "[1]; at 34 weeks, one-tailed t test, listed as L-peptide", "value": "significantly lower than saline (p=0.03)"},
      {"measurement": "anti-DNA antibody-forming cells (AFC)", "setting": "[3]; peptide once i.v., spleen cells 2 weeks later, CD4+ CD25+ Treg from tolerized mice added to culture, 160 without Treg, p<0.001", "value": 25, "unit": "per 10^6 B cells"},
      {"measurement": "effect of peptide-induced Treg on CD4+ CD25− T cells", "setting": "[4]", "value": "suppress proliferation and IFNg production"},
      {"measurement": "effect of peptide-induced CD8+ Ti on nephritis and survival", "setting": "[5]", "value": "potent in suppressing nephritis and prolonging survival in vivo"}
    ]}
  ]
}
